Results reported in patent publication US20060173080A1, “Methods of modulating TNF using bupropion” (The Regents of the University of California, priority 2002, published 2006).
Like-named read-outs stand apart in the source and are kept apart here.

What was measured:
CD patients = settings: Kast 1998; cited from earlier work
[1] = test system: Crohn's patients with fistulas; settings: cited from earlier work
TNF [2] = settings: different experimental models; cited from earlier work
[3] = test system: cultures enriched in astrocytes; settings: added to in vitro cultures; cited from earlier work
TNF [4] = settings: Goebel et al. 2000; cited from earlier work
[5] = test system: patients with Crohn's disease; settings: cited from earlier work
TNF [6] = settings: in vivo LPS-induced model; cited from earlier work
BALB/c mice = experiment: LPS-induced shock model: survival and signs of endotoxemia after lethal LPS challenge; format: in vivo
Experimental: Male BALB/c mice were injected with 11, 33 or 100 mg/kg of bupropion or with placebo i.p. in saline 1 h before challenge with 600 μg of E. coli LPS (Sigma, St. Louis, Mo.) by i.p. route. Mice were sacrificed 90 min for detection of cytokines in the serum by sandwich ELISA. Values represent the means±SEM of 5 mice per group. * P<0.05.
BALB/c mice were injected intraperitoneally (i.p.) with bupropion or placebo 1 h prior to i.p. injection of LPS (600 ug/mouse).
Male, 6 weeks old BALB/c mice were used in LPS-induced shock experiments. All mice were raised and maintained at the animal facilities at the Goncalo Moniz Research Center-FIOCRUZ, and provided with rodent diet and water ad libitum. Animal numbers in experimental groups were the minimum necessary to permit statistical analysis. All animals were sacrificed under anaesthesia.
In some experiments, groups of mice received i.p. injection of propranolol (1 mg/Kg), SCH23390 (25 μg/kg) and sulpiride (25 mg/Kg) 1 h prior to injection of bupropion. […] To determine serum TNF, IL-1 beta and IL-10 levels, mice were sacrificed 90 min after injection of LPS and bled by axilar vein puncture. Levels of IFN-gamma and nitric oxide were assayed using sera of mice sacrificed 4 h after LPS injection. Platelet and leukocyte cell counts were performed using blood collected with EDTA after 4 h of LPS challenge, using an automated cell counter (ADVIA 60, Bayer).

Compound: NNCCc1ccccc1 [phenelzine]
- CD remission (CD patients): CD remission

Compound: Remicaid: new drug given early FDA approval for Crohn's patients with fistulas
- patients with complete remission ([1]; another study): 48%
- patients in whom half of the fistulas closed ([1]; one study): 68%

Compound: COc1ccc(C2CNC(=O)C2)cc1OC1CCCC1 (stereo not drawn) [rolipram]
- TNF levels (TNF [2]): lower TNF levels

Compound: CC(C)NCC(O)c1ccc(O)c(O)c1 (stereo not drawn) [isoproteronol]
- LPS-stimulated TNF production [3]: significantly blunted
- TNF levels (TNF [4]): lower TNF levels

Compound: NCCc1ccc(O)c(O)c1 [dopamine]
- LPS-stimulated TNF production [3]: significantly blunted

Compound: infliximab: monoclonal antibody acting against TNF-alpha, for moderate to severe Crohn's disease
- patients in remission ([5]; four weeks after medication, placebo 4 percent): 33%
- share of patients with a 50 percent reduction in fistula drainage ([5]; second study, active fistulas, three doses two weeks apart): two-thirds
- share of the patients' fistulas closed ([5]; second study, active fistulas): over half

Compound: bromocryptine
- TNF levels (TNF [6]): lowered TNF levels

Compound: CCN1CCCC1CNC(=O)c1cc(S(N)(=O)=O)ccc1OC (stereo not drawn) [sulpiride]
- TNF levels (TNF [6]): lowered TNF levels
- effect of antagonist on bupropion mediated survival / protection (BALB/c mice; antagonist i.p. 1 h prior to bupropion (propranolol 1 mg/Kg, SCH23390 25 μg/kg, sulpiride 25 mg/Kg), lethal LPS): did not interfere
- protection from lethal LPS challenge by the antagonist alone (BALB/c mice; without bupropion, propranolol 1 mg/Kg, SCH23390 25 μg/kg, sulpiride 25 mg/Kg i.p.): partial protection

Compound: NC[C@H](O)c1ccc(O)c(O)c1 [noradrenaline]
- LPS-stimulated TNF production [3]: significantly blunted
